Data published in US20250325508A1, “MODULATORS OF PROTEASOME DYNAMICS AND/OR FUNCTION, COMPOSITIONS, METHODS, AND THERAPEUTIC USES THEREOF” (TECHNION RESEARCH & DEVELOPMENT FOUNDATION LIMITED, priority 2022, published 2025).

Tests used:
26S proteasome = experiment: Proteasome subcellular localization in cultured cells (immunofluorescence, cell fractionation/Western blot); assay type: cell-based, human; conditions: for proteasome translocation from the nucleus to the cytosol: amino acid starvation, substance added to starvation medium; for proteasome localization: non-stressed / well-fed cells, complete medium; for proteasome dynamics under known p38 activators: RT4 and HeLa cells
Description: Cells were incubated for 20 min in fractionation buffer [20 mM HEPES pH 7.3, 10 mM KCl, 5 mM ATP, 5 mM MgCl2, and protease inhibitor cocktail (Roche)], followed by the addition of Digitonin (0.01%). They were then mixed thoroughly and centrifuged at 1,000×g for 5 min. The supernatant was collected as cytosolic fraction, and the pellet was washed with fractionation buffer supplemented with NP-40 (0.05%) and centrifuged, and the pellet (nuclei) was resuspended in fractionation buffer supplemented with sodium deoxycholate (0.5%), followed by its sonication.
(§1) Cells were washed twice with ice cold PBS and scraped into lysis buffer (50 mM Tris-HCl, pH 7.4, 130 mM NaCl, 0.5% NP-40) supplemented with freshly added protease inhibitor cocktail, 5 mM ATP, 10 mM iodoacetamide, and 5 mM N-ethyl maleimide. Protein concentration was measured by the BCA assay according to the manufacturer's instructions (Pierce, Rockford, IL). 30 μg of cellular protein were resolved via SDS-PAGE, transferred to a nitrocellulose membrane and immunoblotted with the appropriate antibody.
Cells were seeded on glass cover slips for 36 h. Following the indicated treatments, they were fixed with 4% PFA for 15 min, washed with phosphate-buffered saline (PBS) and incubated in PBS containing 10% goat serum for 1 h at room temperature, followed by 2 h incubation with the indicated primary antibody. Following extensive wash with PBS, the fixed cells were incubated with the relevant secondary antibody for 1 h, washed and mounted. Images were acquired using Zeiss LSM 700 confocal microscope (Zeiss, Oberkochen, Germany). […]

STAT3 = experiment: Western blot for STAT3 phosphorylated at Tyr705; assay type: cell-based, human; conditions: Torin1 treatment
Description: as §1

HeLa cells = experiment: Amino acids level measurement (LC-MS); assay type: cell-based, human; conditions: Torin1 treatment relative to control
Description: Metabolic analysis was carried out as previously described [G. M. MacKay et al., 1st Ed. (Elsevier Inc., 2015)]. Briefly, cells were rapidly washed 3 times with ice-cold PBS and extracted with an aqueous solution of 50% Methanol, and 30% Acetonitrile. Samples were centrifuged at 16,000×g for 10 min at 4° C., and the supernatants were analyzed using HPLC-MS (Q-Exactive Orbitrap Mass Spectrometer (Thermo Scientific) coupled to Thermo Scientific UltiMate 3000 HPLC system). The HPLC setup consisted of a ZIC-PHILIC column (SeQuant, 150×2.1 mm, 5 μm, Merck) with a ZIC-PHILIC guard column (SeQuant, 20×2.1 mm). The aqueous mobile phase solvent was 20 mM ammonium carbonate adjusted to pH 9.4 with 0.1% ammonium hydroxide. The organic mobile phase was acetonitrile. Amino acids and other metabolites were separated over a 15 min linear gradient from 80% organic to 80% aqueous. The column temperature was 45° C., the flow rate 200 μl/min, and the run time 27 min. All metabolites were detected across a mass range of 75-1,000 m/z using the Q-Exactive mass spectrometer at a resolution of 35,000 (at 200 m/z) with electrospray ionization and polarity switching mode. Mass accuracy obtained for all metabolites was below 5 ppm. Data were acquired with Thermo Xcalibur software. The peak areas of different amino acids were determined using Thermo TraceFinder software through which metabolites were identified by the exact mass of the singly charged ion and the known retention time on the HPLC column. Commercially available standard compounds had been analyzed before to determine ion masses and retention times on the ZIC-PHILIC column. Protein quantitation based on the Lowry method was performed for normalization. The figure presents mean+/−SD of three replicates.

HeLa and RT4 cells = experiment: Cell survival assay (live/dead imaging); assay type: cell-based
Description: Data analysis was performed using the Live/Dead module of the MetaXpress software (Molecular Devices). […] Intensities were quantified using Li-Cor imager and software (Odyssey).

N[C@@H](Cc1ccccc1)C(=O)O [Phe, Phenylalanine]
proteasome translocation from the nucleus to the cytosol (26S proteasome): inhibitory effect on proteasome translocation

O=[N+]([O-])c1ccc2c(c1)S(=O)(=O)C=C2 [Stattic]
proteasome translocation from the nucleus to the cytosol (26S proteasome): prevented proteasome translocation from the nucleus to the cytosol

CCC(=O)N1CCN(c2ccc(-n3c(=O)ccc4cnc5ccc(-c6cnc7ccccc7c6)cc5c43)cc2C(F)(F)F)CC1 [Torin1]
proteasome localization (26S proteasome): induced nuclear export of both 20S and 19S sub-complexes | STAT3 Y705 phosphorylation (STAT3): upregulation of Y705 phosphorylation | level of amino acids (HeLa cells): gain in amino acids

N[C@@H](Cc1c[nH]c2ccccc12)C(=O)O [Trp, Tryptophan]
proteasome translocation from the nucleus to the cytosol (26S proteasome): inhibitory effect on proteasome translocation

N[C@@H](Cc1ccc(O)cc1)C(=O)O [Tyr, 4-hydroxyphenylalanine]
proteasome translocation from the nucleus to the cytosol (26S proteasome): inhibitory effect on proteasome translocation

COc1ccc(C[C@H]2NC[C@H](O)[C@H]2OC(C)=O)cc1 [anisomycin]
proteasome dynamics under known p38 activators (26S proteasome): the proteasome was locked in the nucleus | cell death under known p38 activators (HeLa and RT4 cells): many of the cells died

C[C@@H]1C[C@@H]([C@H](O)CC2CC(=O)NC(=O)C2)C(=O)[C@@H](C)C1 [cycloheximide]
restoration of the nuclear proteasomal pool (26S proteasome; replenishment of amino acids after starvation, in presence of substance): did not prevent restoration of the nuclear proteasomal pool

OC[C@@H](O)[C@@H](O)[C@H](O)[C@@H](O)CO [hyperosmotic stress, Sorbitol]
proteasome dynamics under known p38 activators (26S proteasome): the proteasome was locked in the nucleus | cell death under known p38 activators (HeLa and RT4 cells): many of the cells died

Ivermectin
proteasome localization (26S proteasome): cytosolic accumulation
